# Data: ChEMBL document CHEMBL1201862, “PubChem BioAssay data set” (2004)
# Active and inactive are the calls of the source.
# How the values were obtained:
# [1] = molecular target: Glucose-6-phosphate 1-dehydrogenase (Homo sapiens, UniProt P11413); assay: inhibition of Homo sapiens G6PD, dose series – biochemical, fluorescence, selectivity assay for P. falciparum G6PD inhibitor project, dose response (AID 504792); assay type: functional
# [2] = molecular target: Beta Lactamase (Pseudomonas aeruginosa, UniProt Q932Y6); assay: BLA reporter interference, concentration series – BLA reporter cells, FRET fluorescence, artefact control for NOD2-RIPK2 interaction inhibitor project, dose response (AID 651552); assay type: functional, cell-based
# Chain of Beta Lactamase (Q932Y6 whole entry): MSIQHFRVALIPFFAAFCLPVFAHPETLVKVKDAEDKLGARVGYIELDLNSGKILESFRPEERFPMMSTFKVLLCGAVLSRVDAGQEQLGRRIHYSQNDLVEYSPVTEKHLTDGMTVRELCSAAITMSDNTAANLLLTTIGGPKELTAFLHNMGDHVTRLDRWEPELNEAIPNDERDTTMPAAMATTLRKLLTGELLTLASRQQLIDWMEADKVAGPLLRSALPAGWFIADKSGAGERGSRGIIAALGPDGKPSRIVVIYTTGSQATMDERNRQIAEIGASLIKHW
# [3] = NIH3T3 cell viability loss – ATP luminescence, mouse fibroblasts, counter-screen, dose response (AID 2010); assay type: functional, cell-based;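 note: cells exposed to compound for about 90 hours before reading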
# [4] = Fluorescence-based cell-based high throughput dose response assay for inhibitors of the interaction of nucleotide-binding oligomerization domain containing 2 (NOD2) and the receptor-interacting serine-threonine kinase 2 (RIPK2).; assay type: functional; settings: Homo sapiens
# [5] = molecular target: DNA dC->dU-editing enzyme APOBEC-3G (Homo sapiens, UniProt Q9HC16); assay: Dose Response confirmation of small molecule APOBEC3G DNA Deaminase Inhibitors via a fluorescence-based single-stranded DNA deaminase assay. [Related pubchem assays (depositor defined):AID493012, AID493028]; assay type: functional
# Chain of DNA dC->dU-editing enzyme APOBEC-3G (Q9HC16 whole entry): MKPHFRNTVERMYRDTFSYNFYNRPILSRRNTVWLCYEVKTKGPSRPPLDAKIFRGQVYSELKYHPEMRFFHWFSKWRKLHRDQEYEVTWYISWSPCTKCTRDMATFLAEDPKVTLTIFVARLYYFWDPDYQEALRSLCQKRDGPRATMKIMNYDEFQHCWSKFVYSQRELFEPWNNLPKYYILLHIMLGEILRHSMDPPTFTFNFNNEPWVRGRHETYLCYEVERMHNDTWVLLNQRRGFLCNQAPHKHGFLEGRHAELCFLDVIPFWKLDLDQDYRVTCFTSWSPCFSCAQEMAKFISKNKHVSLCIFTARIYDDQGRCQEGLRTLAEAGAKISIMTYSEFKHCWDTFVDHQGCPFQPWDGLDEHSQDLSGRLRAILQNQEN
# [6] = molecular target: DNA dC->dU-editing enzyme APOBEC-3A (Homo sapiens, UniProt P31941); assay: A3A deaminase inhibition for selectivity – biochemical, dose response (AID 504722); assay type: functional
# Chain of DNA dC->dU-editing enzyme APOBEC-3A (P31941 whole entry): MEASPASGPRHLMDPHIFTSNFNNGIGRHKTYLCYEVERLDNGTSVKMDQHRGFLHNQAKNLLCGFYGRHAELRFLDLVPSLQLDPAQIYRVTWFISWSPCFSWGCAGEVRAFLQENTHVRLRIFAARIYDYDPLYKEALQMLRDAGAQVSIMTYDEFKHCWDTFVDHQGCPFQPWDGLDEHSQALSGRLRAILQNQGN
# [7] = Trypanosoma cruzi growth suppression in host cells – NIH3T3 host cells, beta-gal luminescence, confirmation (AID 2044); assay type: functional, cell-based;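 note: intracellular parasites grown in NIH/3T3 mouse fibroblasts as host cells; luminescent beta-galactosidase reporter signal from transgenic T. cruzi replicating inside host cells; inhibitors lower the luminescence signal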
# [8] = viability loss in HeLa cells – cytotoxicity control for MgcRacGAP inhibitor project, dose response (AID 624300); assay type: functional
# [9] = molecular target: Large T antigen (Simian virus 40, UniProt P03070); assay type: functional, Betapolyomavirus macacae;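 note: Confirmatory-stage PubChem screen for compounds that inhibit SV40 T antigen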
# [10] = molecular target: T1, High affinity choline transporter 1 (Homo sapiens, UniProt Q9GZV3); assay: human choline transporter blockers, potency – cell-based, 5-point CRC, membrane potential dye, dose response (AID 504840); assay type: functional
# T1 sequence (Q9GZV3 whole entry): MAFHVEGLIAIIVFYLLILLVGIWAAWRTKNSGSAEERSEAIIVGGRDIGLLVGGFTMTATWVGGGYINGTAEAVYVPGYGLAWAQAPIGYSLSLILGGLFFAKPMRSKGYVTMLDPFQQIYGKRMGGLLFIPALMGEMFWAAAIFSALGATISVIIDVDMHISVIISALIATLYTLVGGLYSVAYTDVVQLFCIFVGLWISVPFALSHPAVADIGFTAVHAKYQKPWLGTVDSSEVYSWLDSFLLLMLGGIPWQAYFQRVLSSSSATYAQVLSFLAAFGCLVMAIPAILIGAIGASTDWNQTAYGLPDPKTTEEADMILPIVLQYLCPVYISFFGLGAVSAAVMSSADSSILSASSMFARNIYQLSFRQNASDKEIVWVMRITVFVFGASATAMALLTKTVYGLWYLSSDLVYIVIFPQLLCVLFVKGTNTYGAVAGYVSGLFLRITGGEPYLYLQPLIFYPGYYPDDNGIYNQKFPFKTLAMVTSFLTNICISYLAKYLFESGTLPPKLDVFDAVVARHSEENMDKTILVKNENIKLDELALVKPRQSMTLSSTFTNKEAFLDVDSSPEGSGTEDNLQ
# [11] = molecular target: T2, Rac GTPase-activating protein 1 (Homo sapiens, UniProt Q9H0H5); assay: blockers of MgcRacGAP-driven Rac1 GTP hydrolysis – biochemical, ADP Hunter fluorescence, primary and confirmatory, confirmation (AID 624330); assay type: functional
# T2 sequence (Q9H0H5 whole entry): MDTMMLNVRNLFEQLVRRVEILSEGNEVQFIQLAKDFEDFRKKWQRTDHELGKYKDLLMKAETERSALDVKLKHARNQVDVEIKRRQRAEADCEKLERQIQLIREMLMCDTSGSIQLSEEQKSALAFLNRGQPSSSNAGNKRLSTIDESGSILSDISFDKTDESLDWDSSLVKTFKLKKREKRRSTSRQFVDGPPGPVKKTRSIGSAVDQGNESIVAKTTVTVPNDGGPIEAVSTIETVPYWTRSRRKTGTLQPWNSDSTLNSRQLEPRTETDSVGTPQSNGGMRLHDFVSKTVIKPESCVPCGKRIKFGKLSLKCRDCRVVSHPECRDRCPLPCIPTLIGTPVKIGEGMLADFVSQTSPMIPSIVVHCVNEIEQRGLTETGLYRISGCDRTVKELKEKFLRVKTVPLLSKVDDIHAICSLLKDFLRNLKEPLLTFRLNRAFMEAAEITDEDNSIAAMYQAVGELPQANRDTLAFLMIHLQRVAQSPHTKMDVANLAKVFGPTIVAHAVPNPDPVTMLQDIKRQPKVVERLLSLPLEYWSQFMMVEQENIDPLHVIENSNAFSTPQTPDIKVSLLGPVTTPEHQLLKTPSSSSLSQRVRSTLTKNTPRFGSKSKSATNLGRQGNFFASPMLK
# [12] = molecular target: Mu-type opioid receptor (Homo sapiens, UniProt P35372); assay type: functional, cell-based;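 note: U2OS cells with beta-arrestin recruitment to OPRM1 by beta-gal complementation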
# Chain of Mu-type opioid receptor (P35372 whole entry): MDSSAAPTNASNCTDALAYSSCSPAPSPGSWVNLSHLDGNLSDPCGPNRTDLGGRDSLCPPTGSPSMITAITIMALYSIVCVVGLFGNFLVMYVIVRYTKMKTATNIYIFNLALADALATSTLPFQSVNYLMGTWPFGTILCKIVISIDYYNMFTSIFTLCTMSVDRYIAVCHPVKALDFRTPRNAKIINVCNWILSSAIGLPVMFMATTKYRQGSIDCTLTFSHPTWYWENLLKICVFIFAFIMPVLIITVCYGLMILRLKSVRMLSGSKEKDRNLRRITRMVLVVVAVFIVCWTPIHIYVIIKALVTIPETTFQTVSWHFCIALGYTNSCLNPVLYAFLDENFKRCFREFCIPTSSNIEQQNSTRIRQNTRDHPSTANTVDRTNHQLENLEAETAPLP
# [13] = molecular target: 5-hydroxytryptamine receptor 2A (Mus musculus, UniProt P35363); assay type: functional, cell-based;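 note: CHO-K1 cells with tagged receptor and beta-arrestin; agonist potency measured as compound-induced activation of the receptor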
# Chain of 5-hydroxytryptamine receptor 2A (P35363 whole entry): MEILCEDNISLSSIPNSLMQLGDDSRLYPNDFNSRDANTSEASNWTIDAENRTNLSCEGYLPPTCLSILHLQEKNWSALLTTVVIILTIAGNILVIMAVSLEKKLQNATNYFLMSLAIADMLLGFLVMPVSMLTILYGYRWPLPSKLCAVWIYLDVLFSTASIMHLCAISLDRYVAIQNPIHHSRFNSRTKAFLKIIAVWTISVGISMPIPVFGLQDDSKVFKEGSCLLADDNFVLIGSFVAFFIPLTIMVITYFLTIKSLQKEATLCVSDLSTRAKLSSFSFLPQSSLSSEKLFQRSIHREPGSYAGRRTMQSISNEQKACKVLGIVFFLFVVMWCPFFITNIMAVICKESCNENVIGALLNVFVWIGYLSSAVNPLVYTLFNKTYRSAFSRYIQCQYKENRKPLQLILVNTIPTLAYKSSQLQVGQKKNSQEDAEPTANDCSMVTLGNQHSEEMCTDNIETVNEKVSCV
# [14] = molecular target: Cytochrome P450 2D6 (Homo sapiens, UniProt P10635);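 note: CYP2D6 member of a cytochrome P450 panel assay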
# Chain of Cytochrome P450 2D6 (P10635 whole entry): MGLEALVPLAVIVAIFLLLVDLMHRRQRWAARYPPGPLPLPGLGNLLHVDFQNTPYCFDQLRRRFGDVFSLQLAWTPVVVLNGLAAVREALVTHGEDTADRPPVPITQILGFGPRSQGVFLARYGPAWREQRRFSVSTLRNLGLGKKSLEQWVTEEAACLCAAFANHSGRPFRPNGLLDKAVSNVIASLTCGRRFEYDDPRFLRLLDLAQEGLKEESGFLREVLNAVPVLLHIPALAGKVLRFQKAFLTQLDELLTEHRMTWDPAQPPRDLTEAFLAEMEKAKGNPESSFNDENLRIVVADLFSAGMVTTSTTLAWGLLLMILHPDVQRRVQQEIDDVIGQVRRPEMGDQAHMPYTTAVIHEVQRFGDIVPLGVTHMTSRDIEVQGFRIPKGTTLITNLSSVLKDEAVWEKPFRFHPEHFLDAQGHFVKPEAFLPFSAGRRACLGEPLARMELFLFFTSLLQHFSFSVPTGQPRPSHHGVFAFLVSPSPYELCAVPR
# [15] = HGIII-sPLA2 enzyme inhibition potency – biochemical, QFRET, IC50, dose response (AID 743457);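 note: green fluorescence rise as the enzyme cleaves BODIPY PC-A2 in liposomes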
# [16] = molecular target: T3, Cytochrome P450 1A2 (Homo sapiens, UniProt P05177);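 note: PubChem cytochrome P450 panel assay, CYP1A2 panel member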
# T3 sequence (P05177 whole entry): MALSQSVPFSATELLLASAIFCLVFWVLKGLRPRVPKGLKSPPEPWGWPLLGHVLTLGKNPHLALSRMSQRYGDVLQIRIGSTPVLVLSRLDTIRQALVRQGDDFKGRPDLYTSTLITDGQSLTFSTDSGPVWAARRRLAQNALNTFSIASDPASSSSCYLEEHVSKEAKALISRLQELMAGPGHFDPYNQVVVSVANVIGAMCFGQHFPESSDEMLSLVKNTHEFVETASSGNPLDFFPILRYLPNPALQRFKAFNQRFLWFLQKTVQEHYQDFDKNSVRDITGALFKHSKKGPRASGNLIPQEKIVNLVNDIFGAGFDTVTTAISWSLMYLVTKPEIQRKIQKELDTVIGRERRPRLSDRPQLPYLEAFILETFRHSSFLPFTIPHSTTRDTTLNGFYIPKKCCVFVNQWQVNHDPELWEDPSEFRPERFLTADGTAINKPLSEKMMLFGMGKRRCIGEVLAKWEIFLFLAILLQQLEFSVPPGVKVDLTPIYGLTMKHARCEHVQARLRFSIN
# [17] = molecular target: Disintegrin and metalloproteinase domain-containing protein 17 (Homo sapiens, UniProt P78536); assay: exosite inhibitors of ADAM17, dose response, biochemical (AID 743260)
# Chain of Disintegrin and metalloproteinase domain-containing protein 17 (P78536 whole entry, the tested form may be a part): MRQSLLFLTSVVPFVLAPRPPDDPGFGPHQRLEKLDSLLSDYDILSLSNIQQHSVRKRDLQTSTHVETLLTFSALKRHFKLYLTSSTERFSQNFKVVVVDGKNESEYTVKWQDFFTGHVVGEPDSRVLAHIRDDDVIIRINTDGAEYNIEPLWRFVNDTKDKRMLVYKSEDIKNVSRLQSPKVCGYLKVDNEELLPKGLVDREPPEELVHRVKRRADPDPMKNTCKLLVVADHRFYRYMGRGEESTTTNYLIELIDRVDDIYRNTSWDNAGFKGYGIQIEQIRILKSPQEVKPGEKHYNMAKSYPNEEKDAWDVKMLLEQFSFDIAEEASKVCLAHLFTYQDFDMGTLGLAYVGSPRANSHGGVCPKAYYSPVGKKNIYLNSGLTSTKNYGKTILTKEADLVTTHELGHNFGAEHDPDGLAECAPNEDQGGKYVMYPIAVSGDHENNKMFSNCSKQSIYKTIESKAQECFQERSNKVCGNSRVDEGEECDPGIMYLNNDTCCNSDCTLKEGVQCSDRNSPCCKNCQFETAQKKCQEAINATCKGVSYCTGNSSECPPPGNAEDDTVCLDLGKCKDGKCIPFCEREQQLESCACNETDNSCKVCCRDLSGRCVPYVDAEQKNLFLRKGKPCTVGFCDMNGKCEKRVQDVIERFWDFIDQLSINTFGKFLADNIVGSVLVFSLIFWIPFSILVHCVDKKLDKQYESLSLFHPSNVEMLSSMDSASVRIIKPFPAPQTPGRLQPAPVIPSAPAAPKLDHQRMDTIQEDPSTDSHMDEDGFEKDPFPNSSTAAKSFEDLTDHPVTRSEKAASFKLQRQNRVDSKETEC
# [18] = inhibition of ADAM10 peptide cleavage – biochemical, FRET peptide substrate, recombinant human ADAM10, selectivity assay for ADAM17 exosite inhibitor project, dose response (AID 743259);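 note: ADAM10 enzyme cleaving a FRET peptide substrate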
# [19] = mouse fibroblast viability loss – cell-based, cherry-pick samples, set 2, cytotoxicity control for T. cruzi growth inhibitor project, dose response (AID 651817); assay type: functional; settings: NIH3T3
# [20] = activation of miR-122 Renilla sensor silencing – cell-based, Huh7 psiCHECK-miR122, Renilla luciferase, cherry-picked, dose response (AID 651956); assay type: functional;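 note: huh7 hepatoma cells stably carrying a psiCHECK-2 miR-122 sensor plasmid; renilla luciferase signal reporting endogenous miR-122 activity after 48 h compound exposure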
# [21] = OVCAR-3 cell viability loss – plate reader, dry powder samples, PAX8 inhibitor project, dose response (AID 743044); assay type: functional, cell-based
# [22] = CMV-driven luciferase expression suppression in HEK293 – cell-based, luminescence, dry powder, counter-screen for Pax8 inhibitor project, dose response (AID 743020); assay type: functional
# [23] = molecular target: Paired box protein Pax-8 (Homo sapiens, UniProt Q06710); assay: PAX8 transcriptional activity inhibition in RMG-I – RMG-I cells, luciferase, cherry-pick, dose response (AID 687027); assay type: functional, cell-based;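 note: luciferase reporter driven by Pax8 target thyroperoxidase promoter measured by SteadyGlo luminescence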
# Chain of Paired box protein Pax-8 (Q06710 whole entry): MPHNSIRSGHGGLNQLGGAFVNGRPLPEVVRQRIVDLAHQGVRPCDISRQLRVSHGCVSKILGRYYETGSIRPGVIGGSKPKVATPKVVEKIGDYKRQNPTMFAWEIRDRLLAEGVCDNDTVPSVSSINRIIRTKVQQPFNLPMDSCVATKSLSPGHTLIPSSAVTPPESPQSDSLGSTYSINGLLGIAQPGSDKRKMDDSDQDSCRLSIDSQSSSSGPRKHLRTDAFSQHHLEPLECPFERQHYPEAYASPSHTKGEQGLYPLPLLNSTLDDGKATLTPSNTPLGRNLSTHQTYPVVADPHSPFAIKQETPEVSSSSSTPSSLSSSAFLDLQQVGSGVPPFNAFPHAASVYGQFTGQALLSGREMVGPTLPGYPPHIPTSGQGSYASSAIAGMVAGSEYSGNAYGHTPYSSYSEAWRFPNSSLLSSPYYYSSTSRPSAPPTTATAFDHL
# [24] = OVCAR8 cell viability loss – plate reader, dry powder samples, PAX8 project, dose response (AID 743197); assay type: functional, cell-based; settings: OVCAR-8
# [25] = IGROV1 cell killing – plate reader, dry powder samples, PAX8 inhibitor project, dose response (AID 743043); assay type: functional, cell-based; settings: IGROV-1
# [26] = TNFa-induced NF-kB reporter signal decrease – HEK293 LMP1 reporter cells, dry powder, set 2, selectivity assay for EBV LMP1 NF-kB inhibitor project, dose response (AID 624369); assay type: functional
# [27] = Late stage assay provider results from the probe development effort to identify selective inhibitors of heat shock protein 90 (HSP90): Absorbance-based cell proliferation assay in MCF7 cells.; assay type: functional
# [28] = Late stage assay provider results from the probe development effort to identify selective inhibitors of heat shock protein 90 (HSP90): Absorbance-based cell proliferation assay in SKBR3 cells.; assay type: functional; settings: SK-BR-3
# [29] = molecular target: Endoplasmic reticulum aminopeptidase 1 (Homo sapiens, UniProt Q9NZ08); assay: inhibition of human ERAP1 enzyme activity – biochemical, cherry-pick, set 2, plate reader, dose response (AID 743314)
# Chain of Endoplasmic reticulum aminopeptidase 1 (Q9NZ08 whole entry): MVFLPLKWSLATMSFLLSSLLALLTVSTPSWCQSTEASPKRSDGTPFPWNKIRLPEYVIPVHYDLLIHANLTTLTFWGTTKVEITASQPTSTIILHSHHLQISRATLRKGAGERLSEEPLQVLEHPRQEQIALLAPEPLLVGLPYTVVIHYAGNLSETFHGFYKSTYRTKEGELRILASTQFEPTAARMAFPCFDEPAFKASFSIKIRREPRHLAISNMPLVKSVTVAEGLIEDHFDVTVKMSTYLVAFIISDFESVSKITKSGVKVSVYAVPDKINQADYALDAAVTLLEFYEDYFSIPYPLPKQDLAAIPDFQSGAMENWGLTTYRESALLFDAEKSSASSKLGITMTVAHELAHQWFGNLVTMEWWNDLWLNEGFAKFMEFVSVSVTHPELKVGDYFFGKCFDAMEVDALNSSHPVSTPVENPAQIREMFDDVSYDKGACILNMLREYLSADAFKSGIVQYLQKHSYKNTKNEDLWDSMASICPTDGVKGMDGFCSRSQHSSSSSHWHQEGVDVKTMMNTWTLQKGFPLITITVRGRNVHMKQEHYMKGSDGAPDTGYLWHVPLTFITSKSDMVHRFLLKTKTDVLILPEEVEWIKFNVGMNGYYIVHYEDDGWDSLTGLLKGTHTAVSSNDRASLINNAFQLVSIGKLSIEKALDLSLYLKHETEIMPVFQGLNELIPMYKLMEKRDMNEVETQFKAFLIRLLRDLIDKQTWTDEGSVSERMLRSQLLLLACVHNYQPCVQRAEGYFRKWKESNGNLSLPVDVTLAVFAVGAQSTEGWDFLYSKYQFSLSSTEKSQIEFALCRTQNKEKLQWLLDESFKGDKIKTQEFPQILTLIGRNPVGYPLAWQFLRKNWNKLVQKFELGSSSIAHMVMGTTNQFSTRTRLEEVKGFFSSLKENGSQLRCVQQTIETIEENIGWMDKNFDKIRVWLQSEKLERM
# [30] = general mammalian cell viability loss – inhibitor set, cherry-pick, set 2, cytotoxicity control for miR-122 modulator project, dose response (AID 720697); assay type: functional, cell-based
# [31] = A Cell-Based Confirmatory Screen for Compounds that Inhibit VEEV, TC-83 (8).; assay type: functional
# Chain of Glucose-6-phosphate 1-dehydrogenase (P11413 whole entry): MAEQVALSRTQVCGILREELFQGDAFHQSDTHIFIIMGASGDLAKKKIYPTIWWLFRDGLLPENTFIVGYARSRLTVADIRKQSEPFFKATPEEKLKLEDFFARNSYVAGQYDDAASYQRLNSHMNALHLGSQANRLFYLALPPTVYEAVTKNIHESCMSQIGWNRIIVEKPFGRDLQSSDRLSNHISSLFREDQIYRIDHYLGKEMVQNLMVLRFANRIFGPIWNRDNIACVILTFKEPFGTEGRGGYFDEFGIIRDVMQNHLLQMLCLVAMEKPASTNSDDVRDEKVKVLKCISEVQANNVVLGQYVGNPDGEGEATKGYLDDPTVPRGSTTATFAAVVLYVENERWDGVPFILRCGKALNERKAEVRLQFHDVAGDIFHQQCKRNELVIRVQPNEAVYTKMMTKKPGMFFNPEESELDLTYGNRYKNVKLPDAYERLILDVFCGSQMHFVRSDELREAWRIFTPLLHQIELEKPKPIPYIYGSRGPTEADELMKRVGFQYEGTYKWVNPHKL
compound,measurement,setting,value
Cc1cc(C)c2c(=O)n(CC(=O)Nc3ccc(Cl)cc3)sc2n1,IC50,[1],20.7 µM (inactive)
same,IC50,[2],23.6 µM (inactive)
same,EC50,[3],> 30 µM (not active)
same,IC50,[4],9.56 µM (active)
same,IC50,[5],3.35 µM (active)
same,IC50,[6],> 100 µM (inactive)
same,EC50,[7],1.39 µM (active)
COc1cc(/C=C2/C(=O)ON=C2c2ccccc2)ccc1O,CC50,[8],100 µM (active)
same,IC50,[9],9.98 µM (active)
same,IC50,[10],9.6 µM (active)
same,IC50,[11],100 µM (active)
O=C(CSc1ccc2ccccc2c1)NCCc1ccc(O)c(O)c1,EC50,[12],92.5 µM (inactive)
same,EC50,[13],2.67 µM (active)
O=C(CSCc1ccccc1Cl)NNC(=S)Nc1ccccc1,AC50,[14],14.1 µM (inconclusive)
same,IC50,[15],> 122 µM (inactive)
same,AC50,[16],15.8 µM (inconclusive)
O=C(C[C@H]1C/C=C\CC[C@@H](Cc2ccc(F)cc2)C(=O)O[C@@H](c2ccccc2)CNC1=O)N[C@H](CO)Cc1ccccc1,IC50,[17],> 69.5 µM (inactive)
same,IC50,[18],> 69.5 µM (inactive)
C[C@H]1CN([C@@H](C)CO)C(=O)c2cccc(NC(=O)NC3CCCCC3)c2O[C@H]1CN(C)S(=O)(=O)c1ccc(F)cc1,AC50,[19],28.7 µM (active)
CCCNC(=O)C[C@H]1CC[C@@H]2[C@@H](COc3ccc(NC(=O)c4ccc(C(F)(F)F)cc4)cc3C(=O)N2C)O1,AC50,[20],26.9 µM (active)
CS(=O)(=O)Nc1ccc2c(c1)[C@@H]1C[C@H](CC(=O)NCc3ccc(Oc4ccccc4)cc3)O[C@@H](CO)[C@@H]1O2,AC50,[21],20.7 µM (active)
same,AC50,[22],39.7 µM (active)
same,AC50,[23],6.4 µM (active)
C[C@@H]1CN([C@H](C)CO)C(=O)c2cc(NS(=O)(=O)c3ccc(Cl)cc3)ccc2O[C@@H](C)CCCCO[C@H]1CN(C)C(=O)Nc1ccc(C(F)(F)F)cc1,AC50,[21],17.9 µM (active)
same,AC50,[24],29.6 µM (active)
same,AC50,[23],2.86 µM (active)
same,AC50,[25],35.2 µM (active)
CCCNC(=O)c1cc2c(c(-c3cccc(-c4cccc(F)c4)c3)n1)[C@H](CCO)N([S@@+]([O-])C(C)(C)C)C2,AbsAC35,[26],250.06 µM
COC(=O)CCCCOc1ccc2cc(Br)c(=O)oc2c1,IC50,[27],> 100 µM (inactive)
same,IC50,[28],> 100 µM (inactive)
COc1ccc2c3c([nH]c2c1)[C@H](CO)N(Cc1cc(F)ccc1F)CC31CN(C)C1,AC50,[29],6.53 µM (active)
O=C(Nc1ccccc1)N1C[C@@H]2[C@H](c3ccccc31)[C@H](CO)N2Cc1cocn1,AC50,[30],9.02 µM (active)
CCN1CCN(Cc2nc3ccc(C#N)cc3c(=O)n2-c2ccccc2)CC1,IC50,[31],1.14 µM (active)
